Source: publication PMC11590106, “Computational Model-Assisted Development of a Nonenzymatic Fluorescent Glucose-Sensing Assay” (ACS Sensors, 2024)

Experiments:
Concanavalin A (ConA) [1] = biological target: T1, Concanavalin A (ConA) (Canavalia ensiformis, UniProt P02866); test: competitive fluorescence anisotropy, displacement of Cy5.5-mannotetraose from PEG-ConA; assay type: binding; set-up: ConA Type IV (Sigma), PEGylated (5 kDa mPEG)
Concanavalin A (ConA) [2] = biological target: T1, Concanavalin A (ConA); test: fluorescence anisotropy titration (association constant Ka); assay type: binding; set-up: ConA Type IV (Sigma), PEGylated (5 kDa mPEG); tetramer treated as one protein

T1 sequence (P02866 164-281 limits assumed): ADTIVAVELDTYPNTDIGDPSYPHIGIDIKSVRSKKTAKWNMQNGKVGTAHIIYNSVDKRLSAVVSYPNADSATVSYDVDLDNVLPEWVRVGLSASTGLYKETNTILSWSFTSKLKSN
T1 sequence (P02866 30-148 limits assumed): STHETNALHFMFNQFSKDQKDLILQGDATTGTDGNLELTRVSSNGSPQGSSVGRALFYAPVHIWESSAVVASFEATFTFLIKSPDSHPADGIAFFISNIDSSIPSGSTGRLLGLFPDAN

Compound	competitive fluorescence anisotropy, displacement of Cy5.5-mannotetraose from PE (Concanavalin A (ConA) [1])	fluorescence anisotropy titration (association constant Ka) (Concanavalin A (ConA) [2])
OC[C@H]1OC(O)[C@H](O)[C@@H](O)[C@@H]1O (stereo partly drawn) [glucose]	a sensitive response of the assay was observed for various glucose concentrations within the physiological range	–
Cy5.5-mannobiose	–	1.73 × 10^6 M^–1
Cy5.5-mannotriose	–	5.33 × 10^6 M^–1
